Measurements taken from patent US11931347B2, “Method of screening for agents for differentiating stem cells” (MINERVA BIOTECHNOLOGIES CORPORATION, priority 2015, dated 2024).

Experiments:
[1] = tested on: MDA-MB-453 breast cancer cells; experiment: cancer cell proliferation assay (Calcein); format: cell-based; details: 96 hours (FIG. 110)
Method: (§1) Small molecule inhibition of cancer cell proliferation studies were also performed on several cancer sub-types. […] The small molecules of the invention had the most robust effect on T47D breast cancer cells, which are highly positive for MUC1* growth factor receptor, and its activating ligands NME7AB and NME7-X1. […] For the cancer cell proliferation experiment cancer cells were plated at constant densities (6000 cells/well) into a 96-well White-walled/Clear-bottom Tissue Culture Treated plate (Corning Incorporated, Big Flats, N.Y.). Small molecule analogs are added at T=24 hours in media with 2% FBS. Following the addition of the small molecules, the cells remain untouched for 120 hours with visual confirmations/inspections at 24, 48, 72 and 96 hours post plating. At the 120 hour mark a calcein fluorescence assay (Thermo Fisher Scientific, Waltham, Mass.) is performed on the plate. Calcein fluorescence (final concentration 0.5 uM) is used to assess cell viability. Cancer cell fluorescence is measured in a TECAN SAFIRE^2 spectrophotometer plate reader. The plate is then imaged using an Olympus IX71 fluorescence imaging microscope and montage of the resulting images are assembled using ImageJ.

[2] = tested on: DU145 MUC1* positive prostate cancer cells; experiment: cancer cell proliferation assay (Calcein); format: cell-based; details: 96 hours (FIG. 109)
Method: as §1

[3] = tested on: PC-3 MUC1* negative, NME7AB positive prostate cancer cells; experiment: cancer cell proliferation assay (Calcein); format: cell-based; details: 96 hours (FIG. 111)
Method: as §1

T47D breast cancer cells [4] = experiment: cancer cell migration, invasion assay (Platypus/Oris system); format: cell-based, human; details: T47D, 120 hours
Method: We then tested an expanded panel of agents, including agents known to inhibit cancer growth or migration (FIG. 17) (Horm et al., 2012; Meng & Yue, 2014; Zhen et al., 2014), which is characteristic of aggressive or metastatic cancers. We also synthesized a series of novel small molecules, tested them in the stem cell drug screening assay, and then synthesized analogs of the best hits. These small molecules are pictured in FIGS. 18-27. Both the known compounds and the novel compounds were tested in the stem cell drug screening assay. The effects of the small molecules on naïve versus primed state stem cells are shown in the photographs of FIGS. 29-72. The small molecules pictured in FIGS. 17-27 and the biologicals were also tested in a cancer cell migration assay. A structure activity relationship table is seen in FIG. 28. Potent cancer cell migration is characteristic of cancer cell invasion of other tissues and of metastasis. Typical migration assays involve coating a cell culture plate with fibronectin, collagen or the like, plating cancer cells and making a scar across through the cells and measuring the time it takes for the cancer cells to invade the void space. An alternative approach that gives more reliable data is the Platypus System which is a special multi-well cell culture plate with a juxtaposed set of plugs that block off a circle in the center of each well. Cancer cells are plated while the plugs are in place, then they are removed after the cells attach to the plate surface. […] A bar graph summarizing the results of the known anti-migration compounds compared to the anti-MUC1* Fab E6 and the first few small molecules synthesized is shown in FIG. 73. The effect of two novel small molecules MN1186 and MN1194, compared to the known anti-migration molecule SU11274, is shown in FIG. 75A-75U. FIG. 75V is a graph showing the measured inhibition of cancer cell migration at time 0, 24 hours or 48 hours for a number of compounds. […] FIG. 75X is a graph showing how IC50's of the small molecules of the invention were measured and calculated.
Percent inhibition of cancer cell migration was performed in a wound healing assay. The Percent area that the invading cancer cells occupied, in the presence of a drug candidate compared to the controls, was quantified by Image J cell software which enables cell counting from photographs. IC50's were calculated by performing migration experiments at several compound concentrations and then applying Hill's equation. Inhibition of cancer cell proliferation was quantified by automated cell counting in the presence or absence of a drug candidate. Here, the potency of the drug candidate was simply scored 4 for the highest degree of inhibition and 0 for the lowest. […] The effect of each drug candidate was scored 0-4, with 4 being the highest in inhibiting cell proliferation (FIG. 28).
For the cancer cell migration experiment cancer cells were plated at varying densities into an Oris Cell Migration Assay Collagen-1 coated 96-well plate (Platypus Technologies LLC, Madison, Wis.). The Collagen-1 coated 96-well plate incorporates a specific vacuum plug which attaches to the bottom of each well, creating an area in which the cells cannot grow into. Once the cells have been plated at high densities into each well, they are allotted an 18-24 hour time period to attach to the bottom of the wells. Post-24 hour plugs are removed from the plate and then small molecule analogs are added to the wells. Images are taken of each well and represent time 0 (T=0) for each well. Images are taken of the wells at the 24, 48, 72, 96 and 120 hour time points. Data analysis is conducted using the images taken at these specific time point. Images are imported into ImageJ (Rasband, W. S., ImageJ, U. S. National Institutes of Health, Bethesda, Md., USA, http://imagej.nih.gov/ij/, 1997-2016.) and the area remaining free of cells is calculated. […]

T47D breast cancer cells [5] = experiment: cancer cell proliferation assay (Calcein live cell stain); format: cell-based, human; details: for inhibition of growth of T47D cells: live cell Calcein stain, 96 hours (FIG. 113)
Method: These analogs of MN1194 and 1186 were also tested in a cell growth assay (FIGS. 107A1-107H6 and FIG. 108A1-108H6, respectively). In this experiment, both parent compound and analogs thereof were added to normal cell culture media to final concentrations of 40 uM, 20 uM, 10 uM, 5 uM or 2.5 uM. For comparison, previously known cancer cell migration inhibitors SU11274 and MN1204 were included in the same experiment. […] Relative cell proliferation is quantified on a standard plate reader that reads the fluorescence of the Calcein that is taken up by live cells.
Small molecule inhibition of cancer cell proliferation studies were also performed on several cancer sub-types. […] The small molecules of the invention had the most robust effect on T47D breast cancer cells, which are highly positive for MUC1* growth factor receptor, and its activating ligands NME7AB and NME7-X1.
For the cancer cell proliferation experiment cancer cells were plated at constant densities (6000 cells/well) into a 96-well White-walled/Clear-bottom Tissue Culture Treated plate (Corning Incorporated, Big Flats, N.Y.). Small molecule analogs are added at T=24 hours in media with 2% FBS. Following the addition of the small molecules, the cells remain untouched for 120 hours with visual confirmations/inspections at 24, 48, 72 and 96 hours post plating. At the 120 hour mark a calcein fluorescence assay (Thermo Fisher Scientific, Waltham, Mass.) is performed on the plate. Calcein fluorescence (final concentration 0.5 uM) is used to assess cell viability. Cancer cell fluorescence is measured in a TECAN SAFIRE^2 spectrophotometer plate reader. The plate is then imaged using an Olympus IX71 fluorescence imaging microscope and montage of the resulting images are assembled using ImageJ.

[6] = tested on: E-cadherin, fibronectin, vimentin and NF1 expression in naïve stem cells; experiment: RT-PCR of differentiation markers in treated naïve stem cells; format: cell-based, human
Method: FIG. 161 is a graph of RT-PCR measurement of naïve stem cells that have been treated with compounds of the invention. The genes whose expression is measured are E-cadherin, which goes […] as cells undergo epithelial to mesenchymal transition, fibronectin and vimentin, which both increase as stem cells initiate differentiation and NF1, which is one of the first genes to increase when stem cells begin to differentiate down the neural lineage. […] E-cadherin is the opposite; it […] as cells become cancerous. […] Expression of metastatic marker E-cadherin was reduced and expression of differentiation markers fibronectin, vimentin and NF1 were increased (FIG. 162-FIG. 163). Novel compounds of the invention are highly specific. […] Although we discovered that NME1 dimers, NME7AB and NME7-X1 are all activating ligands of the MUC1* growth factor receptor and they bind to its extracellular domain, we have developed ample evidence that both NME7AB and NME7-X1 have other binding partners and can exert oncogenic effects, independent of MUC1*.

[7] = tested on: human primed state stem cells; experiment: stem cell drug screening assay on primed state stem cells; format: cell-based; details: 6 uM, 3 days
Method: (§2) The stem cell screening assay, was performed in both the presence and absence of the stem cell growth factors: NME7AB for growing naïve stem cells or FGF for growing primed stem cells. If the cognate growth factor was present, then the biological or small molecule would have to compete away the growth factor to get an effect. Therefore, we expected to see more of an effect when the growth factor, FGF for primed stem cells or NME7AB or NME1 dimers for naïve stem cells, was absent. The effect of the compounds on stem cells was visually determined and compounds were ranked 0-4, with 4 being the greatest effect and 0 being no observable effect. The major effect that was observed was a change from pluripotent stem cell morphology, which is a cobblestone pattern of small round cells with a large nucleus to cytoplasm ratio, to that of differentiating stem cells, which are elongated, large and flattened cells with a smaller nucleus to cytoplasm ratio. […] The compounds were added to a final concentration of 6 uM to either naïve state stem cells or primed state stem cells. In this particular case, the naïve state stem cells were maintained in a naïve state by culturing in a media containing NME7AB or NME1 dimers. However, other methods such as 2i and 5i (Silva et al., 2008, Nichols and Smith, 2009, Theunissen et al., 2014)] can be used to maintain stem cells in a more naïve state. In this case primed state stem cells were cultured in bFGF over a layer of MEFs, although it is known that any bFGF containing media will maintain stem cells in the primed state.
Stem cells whether embryonic or induced pluripotent stem (iPS) cells were cultured in a minimal, serum-free media that contained human recombinant bFGF at a concentration of 8 ng/mL. The stem cells were plated over a layer of inactivated mouse embryonic fibroblasts, aka MEFs, which secrete additional uncharacterized growth factors and cytokines.
(§3) Human naïve state and primed stem cells were cultured in parallel for at least 5 passages to guarantee normal differentiation-free growth. The stem cells were plated in 12-well cell culture plates with 50,000 cells per well. Cells were cultured in their respective media, either bFGF media or NME7AB media for 24 hours. Media was then removed and replaced with media devoid of bFGF or NME7AB, when indicated. Agents being tested for their ability to induce differentiation of naïve stem cells were added to the media at the concentrations indicated. After 72 hours, photographs were taken see FIGS. 1-10.
(§4) Human naïve state and primed stem cells were cultured in parallel for at least 5 passages to guarantee normal differentiation-free growth. The stem cells were plated in 12-well cell culture plates with 50,000 cells per well. Cells were cultured in their respective media, either bFGF media or NME7AB media for 24 hours. Media was then removed and replaced with media devoid of bFGF or NME7AB. […] Media was changed after 48 hours and replaced with fresh media containing the BRD4 inhibitors. After 4 days the experiment was stopped. Photographs were taken and cell pellets collected for further analysis, see FIGS. 11-16.

[8] = tested on: human naïve state stem cells; experiment: stem cell drug screening assay on naïve state stem cells; format: cell-based; details: 6 uM, 3 days
Method: as §2
Stem cells whether embryonic or induced pluripotent stem (iPS) cells were cultured in a minimal, serum-free media that contained human recombinant NME7AB at a concentration of 2-32 nM wherein 4-8 nM is preferred and 4 nM is more preferred. To facilitate surface attachment, cell culture plates were coated with an anti-MUC1* monoclonal antibody called MN-C3 or C3 or MN-C8 at a concentration of 2-100 ug/mL coating solution, wherein 3-50 ug/mL is preferred and 6-12.5 ug/mL is more preferred. In these experiments, 12.5 ug/mL of MN-C3 was used. Antibody coated plates were incubated at 4 degrees C. overnight prior to plating stem cells. A Rho kinase I inhibitor was added to enhance surface attachment. In some cases, NME7AB was substituted with human recombinant NME1 dimers which also induce stem cells to revert to a naïve-like state.
as §3, §4

| SMILES | inhibition of growth of MDA-MB-453 cells [1] | inhibition of growth of DU145 cells [2] | inhibition of growth of PC-3 cells [3] | inhibition of cancer cell migration (T47D breast cancer cells [4]) | inhibition of cancer cell proliferation relative to parent compounds (T47D breast cancer cells [5]; T47D, Calcein assay after 120 hours, 40-2.5 uM) | inhibition of growth of T47D cells (T47D breast cancer cells [5]) | up-regulation of markers of differentiation in naïve stem cells (RT-PCR) [6] | effect on primed stem cell pluripotency, growth or differentiation (visually determined) [7] | effect on naïve stem cell pluripotency, growth or differentiation (visually determined) [8] |
| --- | --- | --- | --- | --- | --- | --- | --- | --- | --- |
| CC(C)CC1c2[nH]c3cc(F)ccc3c2CCN1C(=O)CNC(=O)OC(C)(C)C (centres unmarked) [MN1227] | inhibited the growth | inhibited the growth | inhibited the growth | improvements over MN1186 | inhibit cancer cell proliferation better than parent compounds | severely inhibited growth |  |  |  |
| CC(C)C1c2[nH]c3ccccc3c2CCN1C(=O)CCCCNC(=O)OC(C)(C)C (centres unmarked) [MN1235] |  |  |  |  |  |  | failed to induce differentiation |  |  |
| CCCCNC(=O)N1CCc2c([nH]c3ccccc23)C1C(C)c1ccccc1 (centres unmarked) [MN1130] | inhibited the growth | inhibited the growth | inhibited the growth |  |  | severely inhibited growth |  | modest effect | induced differentiation |
| CC(C)CC1c2[nH]c3ccccc3c2CCN1C(=O)C1CCC(CNC(=O)OC(C)(C)C)CC1 (centres unmarked) [MN1246] | inhibited the growth | inhibited the growth | inhibited the growth |  |  | severely inhibited growth |  |  |  |
